# Test results: US20070254956A1, “Medicament for Therapeutic and/or Preventive Treatment of Restenosis or Reocclusion After Vascular Recanalization Operation” (priority 2003, published 2007)
# Test system: proliferation of neointima
# Experiment: Test for inhibition of proliferation of neointima in a mouse model of femoral arterial angiopathy
# Format: in vivo
# Details: male C57BL/6 mouse, 1 mg/kg/day intraperitoneally for 10 days
# Protocol: As an angiopathy model resulting from a vascular recanalization operation, a treatment was carried out in which 0.015 inch spring wires were implanted into both […] of 20-25 g male C57BL/6 mouse under anesthesia, and placed for 1 minute to extend the arteries. After the operation, the compound represented by the formula (I) was administered 1 mg/kg/day intraperitoneally for 10 days. Blood vessels were extirpated 4 weeks after the operation and histopathologically examined. Influences between the drug administered group and non-administered group on the cross-section ratio of neointima and tunica media (neointima/tunica media) were compared.
smiles,measurement,setting,value
O=C(Nc1cc(C(F)(F)F)cc(C(F)(F)F)c1)c1cc(Cl)ccc1O [compound (I)],cross-section ratio of neointima and tunica media (neointima/tunica media),"wire-injured femoral arteries, vessels examined 4 weeks after operation, non-administered group 2.01±0.15",1.01±0.27
same,inhibition of the proliferation of neointima after the angiopathy,4 weeks after operation,strongly inhibited the proliferation of neointima
